Measurements from PubChem BioAssay AID2060510 (Molecular Pharmacology Branch, DTP, NCI, 2025).

Test system: 439559-082-T-J2-PDC spheroids viability
Assay: Anticancer human tumor 439559-082-T-J2-PDC patient-derived colon adenocarcinoma cell line growth inhibition [GQUAD]
Conditions: for IC50: curve of first compound; for viability, T/C: stronger effect = lower value
In short: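 Viability of tumor cells grown as complex spheroids with endothelial and stromal cells, exposed to drug combinations. Top concentration at or near clinical Cmax (else 10 microM), diluted in half-log increments.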

[1] = second compound 0.0316 µM, first compound 0.0316 µM
[2] = second compound 0.0316 µM, first compound 0.1 µM
[3] = second compound 0.0316 µM, first compound 0.316 µM
[4] = second compound 0.0316 µM, first compound 1 µM
[5] = second compound 0.0316 µM, first compound 3.16 µM
[6] = second compound 0.0316 µM, first compound 10 µM
[7] = second compound 0.1 µM, first compound 0.0316 µM
[8] = second compound 0.1 µM, first compound 0.1 µM
[9] = second compound 0.1 µM, first compound 0.316 µM
[10] = second compound 0.1 µM, first compound 1 µM
[11] = second compound 0.1 µM, first compound 3.16 µM
[12] = second compound 0.1 µM, first compound 10 µM
[13] = second compound 0.316 µM, first compound 0.0316 µM
[14] = second compound 0.316 µM, first compound 0.1 µM
[15] = second compound 0.316 µM, first compound 0.316 µM
[16] = second compound 0.316 µM, first compound 1 µM
[17] = second compound 0.316 µM, first compound 3.16 µM
[18] = second compound 0.316 µM, first compound 10 µM
[19] = second compound 1 µM, first compound 0.0316 µM
[20] = second compound 1 µM, first compound 0.1 µM
[21] = second compound 1 µM, first compound 0.316 µM
[22] = second compound 1 µM, first compound 1 µM
[23] = second compound 1 µM, first compound 3.16 µM
[24] = second compound 1 µM, first compound 10 µM
[25] = second compound 3.16 µM, first compound 0.0316 µM
[26] = second compound 3.16 µM, first compound 0.1 µM
[27] = second compound 3.16 µM, first compound 0.316 µM
[28] = second compound 3.16 µM, first compound 1 µM
[29] = second compound 3.16 µM, first compound 3.16 µM
[30] = second compound 3.16 µM, first compound 10 µM
[31] = second compound 10 µM, first compound 0.0316 µM
[32] = second compound 10 µM, first compound 0.1 µM
[33] = second compound 10 µM, first compound 0.316 µM
[34] = second compound 10 µM, first compound 1 µM
[35] = second compound 10 µM, first compound 3.16 µM
[36] = second compound 10 µM, first compound 10 µM
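Also: spheroids exposed to the agents for 7 days before readout.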
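For viability, T/C in this document: percent of luminescence signal in DMSO vehicle wells taken as 100% viability.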

C#Cc1c(F)ccc2cc(O)cc(-c3ncc4c(N5CC6CCC(C5)N6)nc(OCC56CCCN5CC(F)C6)nc4c3F)c12 (centres undefined) + CN(C)c1ccc(Nc2c3ccc(NC(=O)CCN4CCCC4)cc3nc3cc(NC(=O)CCN4CCCC4)ccc23)cc1
IC50 (second compound 0.0316 µM): > 10 µM | IC50 (second compound 0.1 µM): 3.88 µM | IC50 (second compound 0.316 µM): 6.88 µM | IC50 (second compound 1 µM): > 10 µM | IC50 (second compound 3.16 µM): 3.74 µM | IC50 (second compound 10 µM): 3.18 µM | viability, T/C [1]: 83.6% | viability, T/C [2]: 70.7% | viability, T/C [3]: 66% | viability, T/C [4]: 60.1% | viability, T/C [5]: 56.1% | viability, T/C [6]: 49.1% | viability, T/C [7]: 94% | viability, T/C [8]: 68.5% | viability, T/C [9]: 73.1% | viability, T/C [10]: 58.1% | viability, T/C [11]: 54% | viability, T/C [12]: 42.6% | viability, T/C [13]: 79.3% | viability, T/C [14]: 82.8% | viability, T/C [15]: 62.2% | viability, T/C [16]: 62% | viability, T/C [17]: 55.5% | viability, T/C [18]: 47.6% | viability, T/C [19]: 91.5% | viability, T/C [20]: 73.2% | viability, T/C [21]: 64.6% | viability, T/C [22]: 55.4% | viability, T/C [23]: 61.8% | viability, T/C [24]: 48.5% | viability, T/C [25]: 81.9% | viability, T/C [26]: 75.3% | viability, T/C [27]: 69.1% | viability, T/C [28]: 52.4% | viability, T/C [29]: 55.2% | viability, T/C [30]: 43.4% | viability, T/C [31]: 84.4% | viability, T/C [32]: 77.7% | viability, T/C [33]: 62.5% | viability, T/C [34]: 54.7% | viability, T/C [35]: 56.4% | viability, T/C [36]: 40.7%

CC(=O)O[C@H]1C(=O)[C@@]2(C)[C@H]([C@H](OC(=O)c3ccccc3)[C@]3(O)C[C@H](OC(=O)[C@H](O)[C@@H](NC(=O)c4ccccc4)c4ccccc4)C(C)=C1C3(C)C)[C@]1(OC(C)=O)CO[C@@H]1C[C@@H]2O + CN(C)c1ccc(Nc2c3ccc(NC(=O)CCN4CCCC4)cc3nc3cc(NC(=O)CCN4CCCC4)ccc23)cc1
IC50 (second compound 0.0316 µM): 2.03 µM | IC50 (second compound 0.1 µM): 1.83 µM | IC50 (second compound 0.316 µM): 2.04 µM | IC50 (second compound 1 µM): 1.79 µM | IC50 (second compound 3.16 µM): 2.18 µM | IC50 (second compound 10 µM): 1.36 µM | viability, T/C [1]: 84.8% | viability, T/C [2]: 77.7% | viability, T/C [3]: 74.5% | viability, T/C [4]: 62.8% | viability, T/C [5]: 41.7% | viability, T/C [6]: 29.9% | viability, T/C [7]: 85.1% | viability, T/C [8]: 83.7% | viability, T/C [9]: 74.2% | viability, T/C [10]: 60.9% | viability, T/C [11]: 40.3% | viability, T/C [12]: 31.6% | viability, T/C [13]: 84% | viability, T/C [14]: 82.3% | viability, T/C [15]: 69.7% | viability, T/C [16]: 60.4% | viability, T/C [17]: 44% | viability, T/C [18]: 30.7% | viability, T/C [19]: 76.2% | viability, T/C [20]: 82.9% | viability, T/C [21]: 70% | viability, T/C [22]: 64% | viability, T/C [23]: 36.9% | viability, T/C [24]: 28.9% | viability, T/C [25]: 82.1% | viability, T/C [26]: 84.6% | viability, T/C [27]: 78.9% | viability, T/C [28]: 65.8% | viability, T/C [29]: 42.5% | viability, T/C [30]: 26.7% | viability, T/C [31]: 73.5% | viability, T/C [32]: 73.9% | viability, T/C [33]: 86.2% | viability, T/C [34]: 56.6% | viability, T/C [35]: 36.7% | viability, T/C [36]: 27%
